Test results as given in patent US20200069691A1, “HETEROCYCLIC COMPOUNDS AS HIV PROTEASE INHIBITORS” (Merck Sharp & Dohme Corp., priority 2016, published 2020).

These compounds were tested against T1, wild-type HIV-1 protease (Human immunodeficiency virus type 1 group M subtype B, UniProt P04585) (assay: Assay for Inhibition of Microbial Expressed HIV Protease (peptide substrate cleavage, LC-MS/MS readout)). Conditions: E. coli expressed wild-type HIV-1 protease, mean of at least two independent experiments, read-out: HIV Pr Enzyme HIV1 PR IC50.
T1 construct: Escherichia coli expressed wild-type HIV-1 protease protein
Format: biochemical
In short: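 E. coli-expressed wild-type HIV-1 protease ([…]) was preincubated with inhibitor 30 min at room temperature in pH 5.5 acetate buffer (100 mM NaCl, 0.1% BSA). Then 400 μM octapeptide substrate was added and reacted 1 h at 30 °C; inhibition came from LC-MS/MS product peak areas, mean of ≥2 experiments.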

Row | Structure (SMILES) | IC50 [nM]
1 | CN1CCN(C(=O)c2cc(CN3C(=N)NC(c4ccccc4)(c4ccccc4)C3=O)ccc2C(F)(F)F)CC1=O [Compound 153, 4-({5-[(2-imino-5-oxo-4,4-diphenylimidazolidin-1-yl)methyl]-2-(trifluoromethyl)phenyl}-carbonyl)-1-methylpiperazin-2-one] | 10.1
2 | CC(C)CC(c1ccc(C(F)(F)F)c(C(=O)N2CCn3c(nnc3C(F)(F)F)C2)c1)N1C(=N)N[C@@](C[C@@H]2CCOC2)(c2ccc(F)cc2)C1=O (stereo partly drawn) [Compound 29, (5S)-5-(4-fluorophenyl)-2-imino-3-{3-methyl-1-[4-(trifluoromethyl)-3-{[3-(trifluoromethyl)-5,6-dihydro-[1,2,4]triazolo[4,3-a]pyrazin-7(8H)-yl]carbonyl}phenyl]butyl}-5-[(3R)-tetrahydrofuran-3-ylmethyl]-imidazolidin-4-one] | 3.07
3 | N=C1N[C@](CCCC(F)(F)F)(c2ccc(F)cc2)C(=O)N1Cc1ccc(C(F)(F)F)c(C(=O)N2Cc3cnc(-c4cnn5c4CCC5)nc3C2)c1 [Compound 34, (5R)-3-[3-{[2-(5,6-dihydro-4H-pyrrolo[1,2-b]pyrazol-3-yl)-5,7-dihydro-6H-pyrrolo[3,4-d]pyrimidin-6-yl]carbonyl}-4-(trifluoromethyl)benzyl]-5-(4-fluorophenyl)-2-imino-5-(4,4,4-trifluorobutyl)imidazolidin-4-one] | 3.36
4 | N=C1NC(c2ccccc2)(c2ccccc2)C(=O)N1Cc1cccc(C(=O)N2CCN(C(=O)OCc3ccccc3)CC2)c1 [Compound 260, benzyl 4-({3-[(2-imino-5-oxo-4,4-diphenylimidazolidin-1-yl)methyl]phenyl}carbonyl) piperazine-1-carboxylate] | 23.2
5 | N=C1NC(c2ccc(F)cc2)(c2ccc(F)cc2)C(=O)N1Cc1cccc(C(=O)N2Cc3cccc(F)c3C2)c1 [Compound 196, 3-{3-[(4-fluoro-1,3-dihydro-2H-isoindol-2-yl)carbonyl]benzyl}-5,5-bis (4-fluorophenyl)-2-iminoimidazolidin-4-one] | 31.6
6 | N=C1NC(c2ccc(F)cc2)(c2ccc(F)cc2)C(=O)N1Cc1cc(C(=O)N2Cc3nccnc3C2)ccn1 [Compound 402, 3-{[4-(5,7-dihydro-6H-pyrrolo[3,4-b]pyrazin-6-ylcarbonvl)pyridin-2-yl]methyl}-5,5-bis(4-fluorophenyl)-2-iminoimidazolidin-4-one] | 34.2
7 | N=C1NC(c2ccccc2)(c2ccccc2)C(=O)N1Cc1cc(C(=O)N2Cc3cncnc3C2)cs1 [Compound 408, 3-{[4-(5,7-dihydro-6H-pyrrolo[3,4-d]pyrimidin-6-ylcarbonyl)thiophen-2-yl]methyl}-2-imino-5,5-diphenylimidazolidin-4-one] | 80.5
8 | N=C1NC(c2ccccc2)(c2ccccc2)C(=O)N1Cc1cccc(C(=O)N2Cc3[nH]nc(C(F)(F)F)c3C2)c1 [Compound 184, 2-imino-5,5-diphenyl-3-(3-{[3-(trifluoromethyl)-4,6-dihydropyrrolo[3,4-c]pyrazol-5(1H)-yl]carbonyl}benzyl) imidazolidin-4-one] | 2.74
9 | N=C1NC(c2ccccc2)(c2ccccc2)C(=O)N1Cc1cccc(C(=O)N2CCn3nc(C(F)(F)F)nc3C2)c1 [Compound 343, 2-imino-5,5-diphenyl-3-(3-{[2-(trifluoromethyl)-5,6-dihydro-[1,2,4]triazolo[1,5-a]pyrazin-7(8H)-yl]carbonyl}benzyl) imidazolidin-4-one] | 79.8
10 | COC(=O)Nc1ncc2c(n1)CN(C(=O)c1cc(CN3C(=N)NC(c4ccc(F)cc4)(c4ccc(F)cc4)C3=O)ccc1F)C2 [Compound 370, methyl {6-[(5-{[4,4-bis(4-fluorophenyl)-2-imino-5-oxoimidazolidin-1-yl]methyl}-2-fluorophenyl)carbonyl]-6,7-dihydro-5H-pyrrolo[3,4-d]pyrimidin-2-yl}carbamate] | 5.81
11 | Cn1cc(-c2ncc3c(n2)CN(C(=O)c2cc(CN4C(=N)N[C@](CCCC(F)(F)F)(c5ccc(F)cc5)C4=O)ccc2C(F)(F)F)C3)cn1 [Compound 15, (5R)-5-(4-fluorophenyl)-2-imino-3-[3-{[2-(1-methyl-1H-pyrazol-4-yl)-5,7-dihydro-6H-pyrrolo[3,4-d]pyrimidin-6-yl]carbonyl}-4-(trifluoromethyl)benzyl]-5-(4,4,4-trifluorobutyl)imidazolidin-4-one] | 1.95
12 | N=C1NC(c2ccc(F)cc2)(c2ccc(F)cc2)C(=O)N1Cc1ccc(C(F)(F)F)c(C(=O)N2CCC(F)(F)C2)c1 [Compound 172, 3-{3-[(3,3-difluoropyrrolidin-1-yl)carbonyl]-4-(trifluoromethyl)-benzyl}-5,5-bis(4-fluorophenyl)-2-iminoimidazolidin-4-one] | 53.3
13 | CC(C)CCC1(c2ccccc2)NC(=N)N(Cc2cccc(C(=O)N3CCNC(=O)C3)c2)C1=O (centres unmarked) [Compound 351, 4-[(3-{[2-imino-4-(3-methylbutyl)-5-oxo-4-phenylimidazolidin-1-yl]methyl}-phenyl)carbonyl]piperazin-2-one] | 86.7
14 | COCC(=O)N1CCN(C(=O)c2cc(CN3C(=N)N[C@](CCCC(F)(F)F)(c4ccc(F)cc4)C3=O)ccc2C(F)(F)F)CC1 [Compound 112, (5R)-5-(4-fluorophenyl)-2-imino-3-[3-{[4-(methoxyacetyl)piperazin-1-yl]carbonyl}-4-(trifluoromethyl)benzyl]-5-(4,4,4-trifluorobutyl)imidazolidin-4-one] | 30.7
15 | CN(C)C(=O)N1CCN(C(=O)c2cc(F)cc(CN3C(=N)NC(c4ccccc4)(c4ccccc4)C3=O)c2)CC1 [Compound 309, 4-({3-fluoro-5-[(2-imino-5-oxo-4,4-diphenylimidazolidin-1-yl)methyl]phenyl}carbonyl)-N,N-dimethylpiperazine-1-carboxamide] | 122
16 | N=C1NC(c2ccccc2)(c2ccccc2)C(=O)N1Cc1cc(C(=O)N2Cc3nccnc3C2)cs1 [Compound 407, 3-{[4-(5,7-dihydro-6H-pyrrolo[3,4-b]pyrazin-6-ylcarbonyl)thiophen-2-yl]methyl}-2-imino-5,5-diphenylimidazolidin-4-one] | 73.8
17 | CCC(c1cccc(C(=O)N2Cc3cncnc3C2)c1)N1C(=N)NC(c2ccccc2)(c2ccccc2)C1=O (centres unmarked) [Compound 263, 3-{1-[3-(5,7-dihydro-6H-pyrrolo[3,4-d]pyrimidin-6-ylcarbonyl)phenyl]propyl}-2-imino-5,5-diphenylimidazolidin-4-one] | 24.7
18 | CC(C)CCC1(c2ccccc2)NC(=N)N(Cc2ccc(C(F)(F)F)c(C(=O)N3CCC(n4c(=O)[nH]c5ccccc54)CC3)c2)C1=O (centres unmarked) [Compound 155, 1-(1-{[5-{[2-imino-4-(3-methylbutyl)-5-oxo-4-phenyl-imidazolidin-1-yl]methyl}-2-(trifluoromethyl)phenyl]carbonyl}piperidin-4-yl)-1,3-dihydro-2H-benzimidazol-2-one] | 11.3
19 | N=C1NC(c2ccc(F)cc2)(c2ccc(F)cc2)C(=O)N1Cc1ccc(C(F)(F)F)c(C(=O)N2CCC2)c1 [Compound 173, 3-[3-(azetidin-1-ylcarbonyl)-4-(trifluoromethyl)benzyl]-5,5-bis(4-fluorophenyl)-2-iminoimidazolidin-4-one] | 53.3
20 | CN(C)C(=O)c1cccc(C2(c3ccc(F)cc3)NC(=N)N(Cc3cccc(C(=O)N4Cc5ccccc5C4)c3)C2=O)c1 (centres unmarked) [Compound 306, 3-{1-[3-(1,3-dihydro-2H-isoindol-2-ylcarbonyl)benzyl]-4-(4-fluorophenyl)-2-imino-5-oxoimidazolidin-4-yl}-N,N-dimethylbenzamide] | 47.4
21 | CC(C)CC[C@]1(c2ccccc2)NC(=N)N(C(CC(C)C)c2ccc(C(F)(F)F)c(C(=O)N3Cc4nccnc4C3)c2)C1=O (stereo partly drawn) [Compound 5, (5R)-3-{1-[3-(5,7-dihydro-6H-pyrrolo[3,4-b]pyrazin-6-ylcarbonyl)-4-(trifluoromethyl)-phenyl]-3-methylbutyl}-2-imino-5-(3-methylbutyl)-5-phenylimidazo-lidin-4-one] | 0.26
22 | N=C1NC(c2ccccc2)(c2ccccc2)C(=O)N1Cc1cccc(C(=O)N2CCn3c(nnc3C(F)(F)F)C2)c1 [Compound 291, 2-imino-5,5-diphenyl-3-(3-{[3-(trifluoromethyl)-5,6-dihydro[1,2,4]triazolo[4,3-a]pyrazin-7(8H)-yl]carbonyl}benzyl) imidazolidin-4-one] | 37.9
23 | CC(C)CC1(c2ccccc2)NC(=N)N(Cc2cccc(C(=O)N3CCN(c4ccccc4Cl)CC3)c2)C1=O (centres unmarked) [Compound 315, 3-(3-{[4-(2-chlorophenyl)piperazin-1-yl]carbonyl}benzyl)-2-imino-5-(2-methylpropyl)-5-phenylimidazolidin-4-one] | 52.3
24 | CC(C)NC(=O)N1CCN(C(=O)c2cc(F)cc(CN3C(=N)NC(c4ccccc4)(c4ccccc4)C3=O)c2)CC1 [Compound 293, 4-({3-fluoro-5-[(2-imino-5-oxo-4,4-diphenylimidazolidin-1-yl)methyl]phenyl}carbonyl)-N-(1-methylethyl) piperazine-1-carboxamide] | 39.2
25 | N=C1NC(c2ccccc2)(c2ccccc2)C(=O)N1Cc1cccc(C(=O)N2CCN(c3ccccc3Cl)CC2)c1 [Compound 238, 3-(3-{[4-(2-chlorophenyl)piperazin-1-yl]carbonyl}benzyl)-2-imino-5,5-diphenylimidazolidin-4-one] | 15
26 | CC(C)CCC1(c2ccc(F)cc2)NC(=N)N(Cc2ccc(C(F)(F)F)c(C(=O)N3Cc4nccnc4C3)c2)C1=O (centres unmarked) [Compound 146, 3-[3-(5,7-dihydro-6H-pyrrolo[3,4-b]pyrazin-6-ylcarbonyl)-4-(trifluoromethyl)benzyl]-5-(4-fluorophenyl)-2-imino-5-(3-methylbutyl)imidazolidin-4-one] | 4.07
